Laboratory results published in US20140336196A1, “PHOSPHORIC ACID SALTS OF SITAGLIPTIN” (Merck Sharp & Dohme Corp., priority 2011, published 2014).
Structures can show the parent of a compound that is named as a salt.

Test: Physical stability of the crystalline salt at elevated temperature and humidity
Assay type: physicochemical

stability at elevated temperature and humidity (elevated temperature and humidity (general statement)): unexpectedly stable | physical stability (solid crystalline salt, 40° C. at 75% relative humidity for 2 weeks): physically stable
SMILES: N[C@@H](CC(=O)N1CCn2c(nnc2C(F)(F)F)C1)Cc1cc(F)c(F)cc1F [Bis-[(2R)-4-oxo-4-[3-(trifluoromethyl)-5,6-dihydro[1,2,4]triazolo[4,3-a]pyrazin-7(8H)-yl]-1-(2,4,5-trifluorophenyl)butan-2-amine]phosphoric acid trihydrate salt]
